Patent publication US5703093A, “Compounds and methods for the treatment of cardiovascular, inflammatory and immune disorders” (Cytomed, Inc., priority 1995, dated 1997)
Several values for one entry are separate records, joined by “and”; a condition that tells them apart may be missing. Equal values may be shown once. One block for each molecule: values may come before it.

How the values were obtained:
[1] = tested on: Leukotriene B4 Production in Ionophore-stimulated human whole blood; experiment: Inhibition of leukotriene B4 production in ionophore-stimulated human whole blood (HWB); format: cell-based; conditions: A23187-stimulated, LTB4 by EIA, repeat determinations
Protocol: Another biological assay used to evaluate the ability of a compound to inhibit the enzyme 5-lipoxygenase is based on the classic pharmacological model of inflammation induced by inhibition of LTB4 from ionophore stimulated human whole blood.
Inhibition of Leukotriene B4 Production in Ionophore-stimulated human whole blood
Human blood was drawn into heparinized blood collection tubes, and aliquoted in 1 ml portions into 1.5 ml microfuge tubes. Test compound ([…]) of varying concentrations, dissolved in DMSO, was added to the blood sample and incubated for 15 minutes at 37° C. Calcium ionophore ([…], A23187) in DMSO was added to a final concentration of […], and the samples were incubated for 30 minutes at 37° C. Samples are then centrifuged at 1100×g (2500 rpm, H1000B rotor, in a Sorvall centrifuge) for 10 minutes at 4° C. Supernatant ([…]) was transferred into a 1.5 ml microfuge tube, […] of cold methanol added, and proteins precipitated on ice for 30 minutes. The samples were centrifuged at 110×g for 10 minutes at 4° C., and the supernatant assayed for LTB4 using a commercially available EIA kit (Cayman Chemical) according to manufacturer's specifications.

[2] = tested on: whole blood 5-lipoxygenase (LTB4); experiment: Ex-vivo rat whole blood 5-lipoxygenase evaluation (ex vivo LTB4); format: in vivo
[3] = tested on: whole blood 5-lipoxygenase (LTB4); experiment: Ex-vivo mouse whole blood 5-lipoxygenase evaluation (ex vivo LTB4); format: in vivo; conditions: 3 mg/k iv
Protocol: Ex-vivo mouse whole blood 5-lipoxygenase evaluation
CD-1 female mice, weighing 18-25 grams, and CD female rats, weighing 150-230 grams, were obtained from Charles River Labs. Test compounds were dissolved in 0.5% DMSO in 0.9% NaCl for administration in mice (0.5 mg/ml) and in an alcohol vehicle (2% benzyl alcohol, 1% ethanol, 40% PEG 300, 10% propylene glycol, 47% of 5% dextrose and 3.5% pluronic F-68 in DiH2 O) for use in rats (5 mg/ml). […] Heparinized whole blood (0.3 ml) was added into 1.5 ml Eppendorf centrifuge tube containing […] of 2 mM calcium ionophore A23187 (the final concentration of A23187 was […]). The sample was incubated for 30 minutes in a water bath at 37° C., and then centrifuged for 2 minutes. The plasma was diluted (x120) and assayed for LTB4 using EIA.

[4] = target: T1, Cytosol 5-Lipoxygenase of Rat Basophile Leukemia Cells (Rattus norvegicus, UniProt P12527); experiment: Effect on cytosol 5-lipoxygenase of rat basophile leukemia (RBL-2H3) cells; format: biochemical; conditions: RBL-2H3 cytosol preparation, [14C]arachidonic acid; repeat determinations
T1 construct: The supernatant was then removed and stored in aliquots; endogenous in cells; host or cells: RBL-2H3 (rat basophilic leukemia) cells, sonicate, 20,000 x g supernatant
T1 sequence (P12527 1-673): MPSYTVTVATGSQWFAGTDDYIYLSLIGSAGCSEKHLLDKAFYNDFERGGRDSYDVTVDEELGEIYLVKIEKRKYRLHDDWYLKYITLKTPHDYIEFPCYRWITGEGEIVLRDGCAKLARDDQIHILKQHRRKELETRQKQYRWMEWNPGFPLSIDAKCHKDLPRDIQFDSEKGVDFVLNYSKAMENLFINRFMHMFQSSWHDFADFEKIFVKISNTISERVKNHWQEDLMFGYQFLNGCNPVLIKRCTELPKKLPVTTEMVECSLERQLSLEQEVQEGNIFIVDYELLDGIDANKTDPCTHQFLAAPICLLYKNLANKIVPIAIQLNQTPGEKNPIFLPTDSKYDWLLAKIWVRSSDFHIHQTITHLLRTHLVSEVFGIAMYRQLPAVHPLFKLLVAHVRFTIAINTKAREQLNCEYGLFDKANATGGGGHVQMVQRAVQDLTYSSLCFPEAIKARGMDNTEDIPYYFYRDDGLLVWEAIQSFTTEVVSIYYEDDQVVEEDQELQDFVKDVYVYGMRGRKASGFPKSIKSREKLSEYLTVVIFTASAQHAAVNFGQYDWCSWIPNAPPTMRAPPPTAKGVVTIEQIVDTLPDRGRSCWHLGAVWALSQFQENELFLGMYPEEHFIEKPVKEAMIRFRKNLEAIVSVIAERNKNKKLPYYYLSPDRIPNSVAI
Protocol: A wide variety of biological assays have also been used to evaluate the ability of a compound to inhibit the enzyme 5-lipoxygenase. For example, a cytosol 5-lipoxygenase of rat basophilic leukemia cells (RBL) has been widely utilized in studies on leukotriene biosynthesis. Compounds that inhibit 5-lipoxygenase decrease the levels of leukotrienes.
Effect of Compounds on Cytosol 5-Lipoxygenase of Rat Basophile Leukemia Cells
RBL-2H3 cells were grown to confluence in tissue culture flasks according to Carter et al. (J PharmExp Ther 256(3); 929-937, 1991). The cells were harvested and washed five times in calcium-and magnesium-free D-PBS. The cells were suspended at 2×10^7 /ml in 10 mM BES, 10 mM PIPES, pH 6.8, 1 mM EDTA, and then sonicated. […]
The 5-LO activity in the RBL-2H3 preparation was determined as follows: 0.1 ml reactions consisting of 0.7 mM CaCl2, 100 mM NaCl, 1 mM EDTA, 10 mM BES, 10 MM PIPES, pH 7.4, varying concentrations of test compound dissolved in DMSO (7.5% DMSO final in assay), and an amount of the RBL-2H3 preparation that will convert 15% of the arachidonic acid substrate mixture to oxygenated products (determined experimentally for each RBL-2H3 preparation), were incubated for 20 minutes at room temperature. […] The film was developed, scanned using a densitometer, and the peak areas of arachidonic acid and its product(s) are calculated. […]

PAF = PAF (Homo sapiens, UniProt P25105); conditions: reported in the literature; cited from earlier work
Chain of PAF (P25105 whole entry): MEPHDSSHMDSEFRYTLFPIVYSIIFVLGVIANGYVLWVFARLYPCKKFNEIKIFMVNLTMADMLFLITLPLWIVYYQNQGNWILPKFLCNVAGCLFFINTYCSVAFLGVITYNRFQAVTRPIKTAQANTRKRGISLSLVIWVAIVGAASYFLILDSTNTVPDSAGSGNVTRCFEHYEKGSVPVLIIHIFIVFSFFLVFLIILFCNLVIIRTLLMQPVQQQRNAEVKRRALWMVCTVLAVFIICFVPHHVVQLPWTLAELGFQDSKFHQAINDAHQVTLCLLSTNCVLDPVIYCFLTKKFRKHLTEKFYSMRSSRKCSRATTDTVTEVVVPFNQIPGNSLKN

5-lipoxygenase = target: T2, 5-lipoxygenase (Homo sapiens, UniProt P09917); conditions: reported in the literature; cited from earlier work
T2 sequence (P09917 1-674): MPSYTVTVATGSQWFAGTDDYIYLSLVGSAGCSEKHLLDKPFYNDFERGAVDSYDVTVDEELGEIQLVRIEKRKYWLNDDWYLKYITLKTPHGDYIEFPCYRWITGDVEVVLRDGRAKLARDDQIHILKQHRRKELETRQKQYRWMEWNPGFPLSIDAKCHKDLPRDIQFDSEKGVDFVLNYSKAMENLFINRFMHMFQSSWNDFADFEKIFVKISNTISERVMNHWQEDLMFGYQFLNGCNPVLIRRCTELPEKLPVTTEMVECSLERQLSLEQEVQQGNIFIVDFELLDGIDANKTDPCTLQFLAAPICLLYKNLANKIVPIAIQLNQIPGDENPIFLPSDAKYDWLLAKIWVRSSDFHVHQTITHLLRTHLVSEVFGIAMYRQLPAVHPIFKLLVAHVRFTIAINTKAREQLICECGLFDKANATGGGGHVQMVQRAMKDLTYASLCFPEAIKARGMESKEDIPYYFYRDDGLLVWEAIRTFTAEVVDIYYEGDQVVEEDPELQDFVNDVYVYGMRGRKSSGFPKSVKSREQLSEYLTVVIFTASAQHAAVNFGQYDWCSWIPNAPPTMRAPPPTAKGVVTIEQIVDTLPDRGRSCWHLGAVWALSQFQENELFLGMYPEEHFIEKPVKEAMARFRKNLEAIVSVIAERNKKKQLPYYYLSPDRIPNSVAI

SMILES: NC(=O)N(O)CCC#C[C@@H]1CC[C@@H](COc2ccc(F)cc2)O1
- ex vivo LTB4 % inh. ([2]; 2 mg/k po, 60 minutes): 93%
- ex vivo LTB4 % inh. ([2]; 2 mg/k po, 360 minutes): 5%
- ex vivo LTB4 % inh. ([2]; 5 mg/k po, 900 minutes): 29%
- ex vivo LTB4 % inh. ([3]; 15 minutes): 94%
- ex vivo LTB4 % inh. ([3]; 60 minutes): 86%
- ex vivo LTB4 % inh. ([3]; 180 minutes): 44%

SMILES: NC(=O)N(O)CCC#C[C@H]1CC[C@@H](COc2ccc(F)cc2)O1
- IC50 [4]: 2000 nM and 1260 nM and 1560 nM and 880 nM
- IC50 [1]: 520 nM
- IC50 ([1]; Homo sapiens): 430 nM
- ex vivo LTB4 % inh. ([2]; 2 mg/k po, 60 minutes): 86%
- ex vivo LTB4 % inh. ([2]; 2 mg/k po, 360 minutes): 63%

SMILES: NC(=O)N(O)CCC#C[C@H]1CC[C@H](COc2ccc(F)cc2)O1
- IC50 [4]: 1350 nM and 1380 nM
- IC50 [1]: 270 nM
- IC50 ([1]; Homo sapiens): 150 nM

SMILES: NC(=O)N(O)CCC#C[C@@H]1CC[C@H](COc2ccc(F)cc2)O1
- IC50 ([1]; Homo sapiens): 180 nM

SMILES: COc1cc([C@H]2CC[C@H](c3cc(OC)c(OC)c(OC)c3)S2)cc(OC)c1OC (relative stereo) [L-653,150, trans-2,5-bis-(3,4,5-trimethoxyphenyl)tetrahydrothiophene]
- PAF antagonism (PAF): potent PAF antagonist
- inhibition of 5-lipoxygenase (5-lipoxygenase): moderate inhibitor of 5-lipoxygenase

The next lines start with results.

- IC50 ([1]; Homo sapiens): 153 nM
SMILES: NC(=O)N(O)CCCC[C@@H]1CC[C@@H](COc2ccc(F)cc2)O1
- ex vivo LTB4 % inh. ([2]; 2 mg/k po, 900 minutes): 34%
- ex vivo LTB4 % inh. ([2]; 5 mg/k po, 900 minutes): 34%
- ex vivo LTB4 % inh. ([3]; 15 minutes): 89%
- ex vivo LTB4 % inh. ([3]; 60 minutes): 22%
- ex vivo LTB4 % inh. ([3]; 180 minutes): 36%

- IC50 ([1]; Homo sapiens): 420 nM
SMILES: NC(=O)N(O)CCCC[C@H]1CC[C@H](COc2ccc(F)cc2)O1 (single isomer, unassigned)
